The values that follow come from the OligoGym collection.

Several values for one entry are separate records, joined by “and”; a condition that tells them apart may be missing. Identical values can stand only once. After the bases stand the sugars from the 5' end (letter, count) and the backbone: PS all phosphorothioate, else s phosphorothioate and o phosphodiester by linkage. Methylation of C is not given here. k = constrained ethyl (cEt); d = 2'-deoxy (DNA)

The target in the data set is MALAT1. Particulars: ASO, A431, 0.005 µM.
As to TATGAACCAAAGCTGC (sugars k3 d10 k3, PS), the target mRNA inhibition is 7%.

For AAATACTTCATTACCC (sugars k3 d10 k3, PS), the target mRNA inhibition is 24%. Then TGAAACCGATTATGGA (sugars k3 d10 k3, PS), with 3%; and ATGCTACTCTTCTAAG (sugars k3 d10 k3, PS), with 40%; and AGACAGACCTAAGGGA (sugars k3 d10 k3, PS), with 21%. The value for TCAAGCACCGCTTGAG (sugars k3 d10 k3, PS) was -12% and 8%; that for TGGCAAAATGGCGGAC (sugars k3 d10 k3, PS) was 19%.

Consider GTGTAGCACCTGGGTC (sugars k3 d10 k3, PS), for which the target mRNA inhibition was 64% and 46%. Then GCAGTTTCTATAGTAG (sugars k3 d10 k3, PS), with 45%; and TTGGGAGTTACTTGCC (sugars k3 d10 k3, PS), with 70% and 73%; and AGTTATATTAGGTTCT (sugars k3 d10 k3, PS), with 22%. The value for GTCTACAAGTTACATG (sugars k3 d10 k3, PS) was 13%; that for GGTTTTAATACCCTTC (sugars k3 d10 k3, PS) was 51%; that for AAAGAGTGTTCGCAGA (sugars k3 d10 k3, PS) was 54%.

As to ACCGTAACAGGCCACT (sugars k3 d10 k3, PS), the target mRNA inhibition turned out to be 20%. Consider CACTGATCACTTTAGA (sugars k3 d10 k3, PS), for which the target mRNA inhibition worked out at 41%. Then ACATATTGCCGACCTC (sugars k3 d10 k3, PS), with 43%. The value for TAAAGTAAATAGGCTA (sugars k3 d10 k3, PS) was 21%; that for TCACAAATACGACTGC (sugars k3 d10 k3, PS) was 23%; that for CGGACTTTCTCCCCCA (sugars k3 d10 k3, PS) was -9%. On to CAATCAAGTCAAGCTC (sugars k3 d10 k3, PS), for which the target mRNA inhibition came to 3%. Then TGGAGATCAGCTTCCG (sugars k3 d10 k3, PS), with 18%; and CCGCTTGAGATTTGGG (sugars k3 d10 k3, PS), with 28%; and GCATAAAGCTGAAATC (sugars k3 d10 k3, PS), with 4%. The value for TTGCCCTTCTATTGGT (sugars k3 d10 k3, PS) was 11%; that for ATCACCTTCGGTTTAA (sugars k3 d10 k3, PS) was 40%; that for CAAGTTAAACTTATCT (sugars k3 d10 k3, PS) was 16%. Then CTGCGCTTAAGAGGGC (sugars k3 d10 k3, PS), with 34%; and GTCAAGACAACTGCAT (sugars k3 d10 k3, PS), with 3%; and AACATCTGATTCTAAC (sugars k3 d10 k3, PS), with 27%. Consider CTATACTTCTCCAATA (sugars k3 d10 k3, PS), for which the target mRNA inhibition was -13%.

As to ACCACTCTAAGATTGT (sugars k3 d10 k3, PS), the target mRNA inhibition is -11%. The value for AGCAGCACGGGCTGTC (sugars k3 d10 k3, PS) was 10%; that for ATTTTAAAAAGGCTCG (sugars k3 d10 k3, PS) was 27%; that for GTATTATAATAGAGCT (sugars k3 d10 k3, PS) was 4%.

In the case of TCAACCTCCGTCATGT (sugars k3 d10 k3, PS), the target mRNA inhibition worked out at 32%. Then CATATTTTGCCCCCAC (sugars k3 d10 k3, PS), with 15%; and GCCTTTGTGAGGGAGG (sugars k3 d10 k3, PS), with -23%; and TCCCTTCAGGATCATT (sugars k3 d10 k3, PS), with 10%. Consider CTTCAACTGGGAATAC (sugars k3 d10 k3, PS), for which the target mRNA inhibition was determined as 7%. On to GCCAACTTGGAAGTTG (sugars k3 d10 k3, PS), for which the target mRNA inhibition was -19%. The value for GTCACTGGATAAGTAT (sugars k3 d10 k3, PS) was 48%; that for AAAAAGGCTCGATGGA (sugars k3 d10 k3, PS) was 52%. The value for TTATAGACCCCTGACT (sugars k3 d10 k3, PS) was 10%. For the sequence ACTGCTTACAGATTTG (sugars k3 d10 k3, PS), the target mRNA inhibition is 61% and 64%.

AGCTTGGCCAAGTCTG (sugars k3 d10 k3, PS): the target mRNA inhibition is 28%. Regarding GAGGGACAGTAGGTAT (sugars k3 d10 k3, PS), the target mRNA inhibition was 19%. As to ACCAGTCCTTTTAGTA (sugars k3 d10 k3, PS), the target mRNA inhibition is -2%. Then AAAATGGCGGACTTTC (sugars k3 d10 k3, PS), with 30%; and CGCCGCCTCTTAAAGC (sugars k3 d10 k3, PS), with 13%. The value for CTGATTTTAAGGTTGC (sugars k3 d10 k3, PS) was 80% and 86%. Then ATGGAAAGCGAGTTCA (sugars k3 d10 k3, PS), with 14%. In the case of GAAACTCCCCCATTAT (sugars k3 d10 k3, PS), the target mRNA inhibition was 6%. Then TTAGGATTCTAGACAG (sugars k3 d10 k3, PS), with 43%.

With AACCGGAGCAGGAAGA (sugars k3 d10 k3, PS), the target mRNA inhibition was -16%.

For the sequence ATTAAATTGATGGGCT (sugars k3 d10 k3, PS), the target mRNA inhibition was found to be 20%. In the case of CCCCCCACGGCCCGCA (sugars k3 d10 k3, PS), the target mRNA inhibition is 26%.

Take TGGTTTTAATACCCTT (sugars k3 d10 k3, PS): the target mRNA inhibition came out at 11%.

Take GTAAACCTGTGGTGGT (sugars k3 d10 k3, PS): the target mRNA inhibition is 56% and 60%. The value for AAAGAACTAGTGGTTC (sugars k3 d10 k3, PS) was -4%; that for ATTTGAACCCCGTCCT (sugars k3 d10 k3, PS) was 31%; that for CCTACTGAAGAGCATT (sugars k3 d10 k3, PS) was 25%. The value for TTATTAAGAGCTGCTA (sugars k3 d10 k3, PS) was 27% and 44%; that for TGCGACTTGCTCCCAA (sugars k3 d10 k3, PS) was -13%. Then GGGAGTTGAGGCAAGT (sugars k3 d10 k3, PS), with 6%; and GGCAAAAAGTAGTTCT (sugars k3 d10 k3, PS), with 31%. Regarding ATATTTAACTTCCCCC (sugars k3 d10 k3, PS), the target mRNA inhibition worked out at 30%. Consider ATTCTAGACAGACCTA (sugars k3 d10 k3, PS), for which the target mRNA inhibition came out at 33%. Then CTTCGGTGCCTTTAGT (sugars k3 d10 k3, PS), with 23%.

As to ACCCCAACTAAACATA (sugars k3 d10 k3, PS), the target mRNA inhibition stood at 26%. The value for TTGCCTACCACTCTAA (sugars k3 d10 k3, PS) was 0%. As to TTAAAGTAGACCAACT (sugars k3 d10 k3, PS), the target mRNA inhibition is 27%. Turning to AATCAGGTGAGGCTGA (sugars k3 d10 k3, PS), the target mRNA inhibition is -26%.

For AAAGTAGTTCTTCGGT (sugars k3 d10 k3, PS), the target mRNA inhibition was 17%. As to ACCTACAACACCCGGA (sugars k3 d10 k3, PS), the target mRNA inhibition worked out at 25%. The value for CATTACGCAACTGAGC (sugars k3 d10 k3, PS) was -1%; that for ACTGGTACACCCAGTG (sugars k3 d10 k3, PS) was -8%; that for CAAATTGCACTCGCTC (sugars k3 d10 k3, PS) was 34%.

Take TACCATATCCAAACAA (sugars k3 d10 k3, PS): the target mRNA inhibition amounted to 11%. The value for CGGCCCCCCAGTTGCC (sugars k3 d10 k3, PS) was 17%; that for CCCCACGCCAACACAG (sugars k3 d10 k3, PS) was 10%. Consider TACCTCTTAAAGCACT (sugars k3 d10 k3, PS), for which the target mRNA inhibition was -17%. The value for TCTGTGTTATGCCTGG (sugars k3 d10 k3, PS) was 17%; that for TATGAGCTTCAGACCT (sugars k3 d10 k3, PS) was -9%. The value for CATTACAGTTCTTGAA (sugars k3 d10 k3, PS) was 41%. Then CCTACTTTAAGCCTTC (sugars k3 d10 k3, PS), with 35%. On to GGGACGGTTGAGAAGT (sugars k3 d10 k3, PS), for which the target mRNA inhibition came out at 7%. Then GCTTGGGAAATCTTAG (sugars k3 d10 k3, PS), with 7%; and ATTAATGCTAGTCCTC (sugars k3 d10 k3, PS), with 36%; and CAAGGCACTGATCACT (sugars k3 d10 k3, PS), with 48%.

In the case of GAGTATGCTGATAAAC (sugars k3 d10 k3, PS), the target mRNA inhibition is 37%. Then TAGAGCTTCTCCATTT (sugars k3 d10 k3, PS), with -15%; and TTTTAAAAGATCGCCT (sugars k3 d10 k3, PS), with 33%. Then ATTCACCAAGGAGCTG (sugars k3 d10 k3, PS), with 39%; and GCGAGTTCAAGTGGCC (sugars k3 d10 k3, PS), with -5%; and CTAAGAGACATTCAAG (sugars k3 d10 k3, PS), with 27%. With TCATCAACAAAAGCCC (sugars k3 d10 k3, PS), the target mRNA inhibition was -8%. The value for AAACAACATATTGCCG (sugars k3 d10 k3, PS) was 20%; that for TGGCATCAAGGCACTG (sugars k3 d10 k3, PS) was 49%.
